Where “and” joins values, the source holds several entries; their conditions need not be identical. Identical values can stand only once.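 The compound was tested at five concentrations on cells cultured in 96-well plates, with a 48-hour exposure period. At the GI50, growth is halved. TGI: total growth inhibition.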
Key:
Assay in all cases: DTP human tumour cell line panel, 48 h
CAKI-1 renal = test system: CAKI-1 renal
HOP-62 NSCLC = test system: HOP-62 NSCLC
RPMI-8226 leukemia = test system: RPMI-8226 leukemia
HCT-116 colon = test system: HCT-116 colon
SF-268 CNS = test system: SF-268 CNS
OVCAR-5 ovarian = test system: OVCAR-5 ovarian
MDA-MB-231 breast = test system: MDA-MB-231 breast
T-47D breast = test system: T-47D breast
786-0 renal = test system: 786-0 renal
HOP-18 NSCLC = test system: HOP-18 NSCLC

| Compound | TGI (CAKI-1 renal) | TGI (HOP-62 NSCLC) | TGI (RPMI-8226 leukemia) | TGI (HCT-116 colon) | TGI (SF-268 CNS) | TGI (OVCAR-5 ovarian) | TGI (MDA-MB-231 breast) | TGI (T-47D breast) | TGI (786-0 renal) [µM] | GI50 (MDA-MB-231 breast) | TGI (HOP-18 NSCLC) [µM] | GI50 (CAKI-1 renal) | GI50 (HOP-62 NSCLC) | GI50 (RPMI-8226 leukemia) | GI50 (SF-268 CNS) | GI50 (OVCAR-5 ovarian) | GI50 (T-47D breast) | GI50 (HCT-116 colon) | GI50 (HOP-18 NSCLC) [µM] |
| --- | --- | --- | --- | --- | --- | --- | --- | --- | --- | --- | --- | --- | --- | --- | --- | --- | --- | --- | --- |
| N#CC(c1ccccc1)N1CCCN(C(C#N)c2ccccc2)C1c1ccccc1O (centres undefined) | > 100 µM | > 100 µM | > 100 µM | > 100 µM | > 100 µM | > 100 µM | > 100 µM | > 100 µM | > 100 |  |  |  |  |  |  |  |  |  |  |
| O=[n+]1c2c(n([O-])c3ccccc31)-c1cccc3cccc-2c13 |  |  |  | > 100 µM | > 100 µM |  | > 100 µM | > 100 µM |  |  |  |  |  |  |  |  |  |  |  |
| O=[N+]([O-])c1ccc2c(c1)c(N=NC(=S)NC1CCCCC1)c(O)n2CN1CCOCC1 | 14.3 µM | 23.8 µM | 52.6 µM | 16.2 µM | 19.2 µM | 23.8 µM | 31.8 µM | 17.7 µM | 18.6 |  |  |  |  |  |  |  |  |  |  |
| CCC(C)C1NC(=O)C2CCCN2C(=O)C(CC2CO2)OC(=O)CCNC(=O)C(C)N(C)C(=O)C(C(C)C)N(C)C1=O (centres undefined) | > 100 µM |  |  |  | > 100 µM | > 100 µM | > 100 µM | > 100 µM |  |  |  |  |  |  |  |  |  |  |  |
| COC(=O)C1C(C)N1C (centres undefined) |  | > 100 µM | > 100 µM |  |  |  |  |  |  |  |  |  |  |  |  |  |  |  |  |
| Cc1cc(O)c(C(C)C)cc1CN1CCCCC1 | > 100 µM | > 100 µM | > 100 µM | > 100 µM | > 100 µM | > 100 µM | > 100 µM | > 100 µM | > 100 |  |  |  |  |  |  |  |  |  |  |
| CC[C@@]1(O)C(=O)OCc2c1cc1n(c2=O)Cc2c-1nc1ccc(O)cc1c2CC[Si](C)(C)C |  | 0.0106 µM | 0.348 µM |  |  | 0.267 µM and 0.375 µM | 12.9 µM |  |  | 0.12 µM |  |  |  |  |  |  |  |  |  |
| O=C(O)C(CSC(c1ccccc1)(c1ccccc1)c1ccccc1)N=Cc1cccs1 (centres undefined) | > 54.7 µM | > 100 µM | > 100 µM | > 56.2 µM | > 40.2 µM | > 100 µM | 7.01 µM | > 100 µM | > 53.2 |  |  |  |  |  |  |  |  |  |  |
| COc1ccc(N=c2ssc(C(=S)Nc3ccc(OC)cc3)c2S)cc1 | > 100 µM | > 100 µM | > 100 µM | > 100 µM | > 100 µM | > 100 µM | > 100 µM | > 100 µM | > 100 |  |  |  |  |  |  |  |  |  |  |
| COC(=O)C1C(O)CCC2CN3CCc4c([nH]c5cccc(OC)c45)C3CC21 (centres undefined) | > 100 µM | > 100 µM | > 100 µM | > 100 µM | > 100 µM | > 100 µM | > 100 µM | > 100 µM | > 100 |  |  |  |  |  |  |  |  |  |  |
| CCOC(=O)C1CCn2c(nc3c2c(=O)n(C)c(=O)n3C)S1 (centres undefined) | > 100 µM | > 100 µM | > 100 µM | > 100 µM | > 100 µM | > 100 µM |  |  |  |  | > 100 |  |  |  |  |  |  |  |  |
| C[C@]12CCC(=O)C=C1CC[C@@H]1[C@@H]2[C@@H](O)C[C@@]2(C)[C@H]1CC[C@]2(O)C(=O)CO | > 100 µM | > 100 µM | > 100 µM | > 100 µM | > 100 µM | > 100 µM | > 100 µM | > 100 µM | > 100 |  |  |  |  |  |  |  |  |  |  |
| O=C1c2cc3c(cc2-c2c1c1ccc(Cl)cc1c(=O)n2C[C@H](O)[C@@H](O)[C@H](O)CO)OCO3 | 0.4 µM | 0.341 µM | 0.989 µM |  | > 100 µM | 1.29 µM | 3.76 µM | 0.29 µM |  | 0.333 µM |  | 0.0325 µM | 0.0186 µM | 0.24 µM | 0.0155 µM | 0.0524 µM | 0.0132 µM |  |  |
| CC1(C)CCC2(C(=O)OC3OC(CO)C(O)C(O)C3O)CCC3(C)C(=CCC4C5(C)CCC(OC6OC(CO)C(O)C(O)C6O)C(C)(C)C5CCC43C)C2C1 (centres undefined) | > 25 µM | > 25 µM | 10.7 µM | > 25 µM | 21.8 µM | > 25 µM | > 25 µM | 24.3 µM | > 25 |  |  |  |  |  |  |  |  |  |  |
| N[C@H]1CCN(c2c(F)cc3c(=O)c(C(=O)O)cn4c3c2Oc2cc3c(ccc5ccccc53)cc2-4)C1 | > 100 µM | > 100 µM | 4 µM | > 100 µM |  | > 100 µM | 0.864 µM |  | > 100 |  |  |  |  |  |  |  |  |  |  |
| NCCNc1nc(N2CCCC2)c2nc(Cl)c(NCc3ccccc3)nc2n1 | 15.2 µM | 3.64 µM | 3.84 µM | 2.93 µM | 3.81 µM | 7.88 µM | 2.87 µM | 3.79 µM | 3.08 |  |  |  |  |  |  |  |  |  |  |
| C/C(=N\NC(=O)c1cccnc1)c1cccc(/C(C)=N/NC(=O)c2cccnc2)n1 |  |  |  | > 100 µM | 30.6 µM | 8.28 µM |  |  |  |  | 6.15 |  |  |  |  |  |  | 4.24 µM | 1.06 |
| CC1(C)CC(=O)C2=C(C1)NC(SSC1=C(C#N)C(c3ccc(F)cc3)C3=C(CC(C)(C)CC3=O)N1)=C(C#N)C2c1ccc(F)cc1 (centres undefined) | 50.7 µg/mL | > 150 µg/mL | 118 µg/mL | 47.3 µg/mL | 58.4 µg/mL | > 150 µg/mL | 51.7 µg/mL | 15 µg/mL |  | 29 µg/mL |  | 29.5 µg/mL | 108 µg/mL | 50.5 µg/mL | 29.3 µg/mL | 106 µg/mL | 15 µg/mL | 26.5 µg/mL |  |
| CC(Sc1ccccc1)C(CO)(CO)[N+](=O)[O-] (centres undefined) | 33.1 µM | 35.5 µM | 49.2 µM | 31.6 µM | 46.5 µM | 36.9 µM |  |  |  |  | 45.6 |  |  |  |  |  |  |  |  |
| COc1ccc(/C=C(\C#N)c2nc(N)nc(N3N=C(C)CC3(C)C)n2)c(O)c1 | 38.1 µM | 43.6 µM | 98.7 µM | 31.4 µM | 38.3 µM | 34.2 µM | 44.8 µM | 34.5 µM | 30 |  |  |  |  |  |  |  |  |  |  |
| C[C@]12CC[C@@H]3c4ccccc4CC[C@H]3[C@@H]1CC[C@@H]2O |  | > 100 µM | > 100 µM | > 100 µM | > 100 µM |  |  |  | > 100 |  |  |  |  |  |  |  |  |  |  |
| O=S(=O)(O)c1cccc2c(N=Nc3c(O)ccc4ccccc34)cccc12 | > 100 µM | > 100 µM | > 100 µM | > 100 µM | > 100 µM | > 100 µM | > 100 µM | > 100 µM | > 100 |  |  |  |  |  |  |  |  |  |  |
| CN1C2CCC1C(C(O)c1ccccc1[N+](=O)[O-])C(=O)C2 (centres undefined) | > 100 µM | > 100 µM | > 100 µM | > 100 µM | > 100 µM | > 100 µM | > 100 µM | 87.7 µM | > 100 |  |  |  |  |  |  |  |  |  |  |
| Nc1nc(N)c2c(n1)NC(c1ccccc1)CC(/C=C/c1ccc(Cl)cc1)=N2 (centres undefined) | 26.4 µM | 34 µM | 12.7 µM | 4.76 µM | 44.1 µM | 32.5 µM | 18.4 µM | 30.8 µM | 12 |  |  |  |  |  |  |  |  |  |  |
| O=S1(=O)OC(c2ccc(O)cc2)(c2ccc(O)cc2)c2ccccc21 | > 100 µM | > 100 µM | > 100 µM | > 100 µM | > 100 µM | > 100 µM | > 100 µM | > 100 µM | > 100 |  |  |  |  |  |  |  |  |  |  |
